# Test results from patent US9809583B2 (priority 2014, dated 2017).
# Like-named read-outs stand apart in the source and are kept apart here.
# Columns and labels:
# [1] = biological target: T1, androgen receptor (hAR) (Homo sapiens (Human), UniProt P10275); assay: Test of transcriptional activity (hAR / ARE-Luc dual-luciferase assay in CHO cells); assay type: cell-based; details: EC50 [nM] (mean ± SE), CHO cells with hAR and ARE-Luc, 24 hours; 10 nM DHT = 100%
# Summary of the method: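 CHO cells cultured 24 h, then transfected with hAR and ARE-Luc plasmids. Transfected cells treated with 0.1˜10,000 nM compound for 24 h; transcriptional activity read by dual-luciferase reporter.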
# [2] = biological target: T1, androgen receptor (hAR); assay: biochemical; assay type: binding
# Method: In order to examine binding ability of the agonists of the present invention to androgen receptors, the following in-vitro experiment was performed. African green monkey kidney fibroblast-like cell line, COS-7 (ATCC, #CRL-1651) was seeded in a 48-well plate at a density of 2.5×10^4 cells/well, and cultured for 24 hours. Then, a plasmid hAR-mixed medium was added thereto. […] Thereafter, the cells were lysed and the amount of [3H]MIB bound to the intracellular androgen receptors was measured using a radiation dosimeter.
# [3] = 1 nM [3H]MIB, hAR-transfected COS-7 cells, 2 hours, read-out: IC50 [nM] (mean ± SE)
# T1 sequence (P10275 whole entry): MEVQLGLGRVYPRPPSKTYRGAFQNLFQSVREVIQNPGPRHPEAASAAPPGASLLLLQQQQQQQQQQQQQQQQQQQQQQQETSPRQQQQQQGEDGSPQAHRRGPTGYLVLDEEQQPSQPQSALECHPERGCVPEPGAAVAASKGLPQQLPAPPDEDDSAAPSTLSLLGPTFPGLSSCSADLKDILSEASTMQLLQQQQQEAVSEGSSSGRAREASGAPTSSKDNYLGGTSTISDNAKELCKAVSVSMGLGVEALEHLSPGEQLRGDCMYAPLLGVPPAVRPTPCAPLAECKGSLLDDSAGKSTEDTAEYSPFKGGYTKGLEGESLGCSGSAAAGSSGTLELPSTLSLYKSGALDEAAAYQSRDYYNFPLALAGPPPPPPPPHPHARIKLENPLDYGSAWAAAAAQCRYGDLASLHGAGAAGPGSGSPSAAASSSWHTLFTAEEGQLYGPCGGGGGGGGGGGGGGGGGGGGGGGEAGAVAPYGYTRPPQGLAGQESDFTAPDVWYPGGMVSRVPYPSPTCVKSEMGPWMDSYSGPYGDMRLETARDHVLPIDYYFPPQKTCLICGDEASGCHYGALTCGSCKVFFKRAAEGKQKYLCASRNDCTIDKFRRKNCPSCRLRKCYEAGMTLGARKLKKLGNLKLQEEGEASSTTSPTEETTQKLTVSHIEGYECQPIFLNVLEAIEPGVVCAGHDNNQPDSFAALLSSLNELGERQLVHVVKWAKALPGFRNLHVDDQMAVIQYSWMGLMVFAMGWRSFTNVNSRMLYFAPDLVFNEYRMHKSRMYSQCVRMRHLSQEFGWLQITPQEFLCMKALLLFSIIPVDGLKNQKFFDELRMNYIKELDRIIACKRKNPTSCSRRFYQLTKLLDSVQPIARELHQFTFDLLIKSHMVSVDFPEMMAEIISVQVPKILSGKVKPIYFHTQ
SMILES,EC50 [1],IC50 [2],"IC50 [2, 3]"
"CN(C)C(=O)c1ccc(OC[C@@H]2CN(c3ccc(C#N)c(C(F)(F)F)c3)[C@@H](C(F)(F)F)O2)cc1 [Example 34, 4-(((2R,5S)-3-(4-cyano-3-(trifluoromethyl)phenyl)-2-(trifluoromethyl)oxazolidin-5-yl)methoxy)-N,N-dimethylbenzamide]",111 nM,24.1 nM,
"N#Cc1ccc(OC[C@@H]2CN(c3ccc(C#N)c(C(F)(F)F)c3)[C@H](C(F)(F)F)O2)cc1 [Example 6, 4-((2S,5S)-5-((4-cyanophenoxy)methyl)-2-(trifluoromethyl)oxazolidin-3-yl)-2-(trifluoromethyl)benzonitrile]",4.1 nM,,11 nM
"N#Cc1ccc(N2C[C@@H](COc3cc(F)c(F)cc3F)O[C@@H]2C(F)(F)F)cc1C(F)(F)F [Example 13, 2-(trifluoromethyl)-4-((2R,5S)-2-(trifluoromethyl)-5-((2,4,5-trifluorophenoxy)methyl)oxazolidin-3-yl)benzonitrile]",9.9 nM,,14.5 nM
"CNC(=O)c1ccc(OC[C@@H]2CN(c3ccc(C#N)c(C(F)(F)F)c3)[C@@H](C(F)(F)F)O2)cc1 [Example 32, 4-(((2R,5S)-3-(4-cyano-3-(trifluoromethyl)phenyl)-2-(trifluoromethyl)oxazolidin-5-yl)methoxy)-N-methylbenzamide]",,,32.7 nM
"N#Cc1ccc(N2C[C@@H](COc3ccc(Cl)cc3)O[C@@H]2C(F)(F)F)cc1C(F)(F)F [Example 56, 4-((2R,5S)-5-((4-chlorophenoxy)methyl)-2-(trifluoromethyl)oxazolidin-3-yl)-2-(trifluoromethyl)benzonitrile]",75.1 nM,,75.1 nM
"N#Cc1ccc(N2C[C@@H](CSc3ccc(Cl)cc3)O[C@@H]2C(F)(F)F)cc1C(F)(F)F [Example 26, 4-((2R,5S)-5-(((4-chlorophenyl)thio)methyl)-2-(trifluoromethyl)oxazolidin-3-yl)-2-(trifluoromethyl)benzonitrile]",8.6 nM,,43.6 nM
"N#Cc1ccc(OC[C@@H]2CN(c3ccc(C#N)c(C(F)(F)F)c3)[C@@H](C(F)(F)F)O2)c(F)c1 [Example 11, 4-((2R,5S)-5-((4-cyano-2-fluorophenoxy)methyl)-2-(trifluoromethyl)oxazolidin-3-yl)-2-(trifluoromethyl)benzonitrile]",4.5 nM,,10.5 nM
"N#Cc1ccc(N2C[C@@H]([C@H](O)C(F)(F)F)O[C@@H]2C(F)(F)F)cc1C(F)(F)F [Example 24, 4-((2R,5S)-5-((S)-2,2,2-trifluoro-1-hydroxyethyl)-2-(trifluoromethyl)oxazolidin-3-yl)-2-(trifluoromethyl)benzonitrile]",,,141 nM
"N#Cc1ccc(OC[C@H]2CN(c3ccc(C#N)c(C(F)(F)F)c3)[C@@H](C(F)(F)F)O2)cc1 [Example 5, 4-((2R,5R)-5-((4-cyanophenoxy)methyl)-2-(trifluoromethyl)oxazolidin-3-yl)-2-(trifluoromethyl)benzonitrile]",,91.6 nM,
"N#Cc1ccc(N2C[C@@H](COc3ccc([N+](=O)[O-])cc3F)O[C@@H]2C(F)(F)F)cc1C(F)(F)F [Example 33, 4-((2R,5S)-5-((2-fluoro-4-nitrophenoxy)methyl)-2-(trifluoromethyl)oxazolidin-3-yl)-2-(trifluoromethyl)benzonitrile]",10.7 nM,,10.4 nM
"N#Cc1ccc(COC[C@@H]2CN(c3ccc(C#N)c(C(F)(F)F)c3)[C@@H](C(F)(F)F)O2)cc1 [Example 2, 4-((2R,5S)-5-(((4-cyanobenzyl)oxy)methyl)-2-(trifluoromethyl)oxazolidin-3-yl)-2-(trifluoromethyl)benzonitrile]",133 nM,,23.9 nM
"CC(=O)Nc1ccc(OC[C@@H]2CN(c3ccc(C#N)c(C(F)(F)F)c3)[C@H](C(F)(F)F)O2)cc1 [Example 30, N-(4-(((2S,5S)-3-(4-cyano-3-(trifluoromethyl)phenyl)-2-(trifluoromethyl)oxazolidin-5-yl)methoxy)phenyl)acetamide]",,,142 nM
"N#Cc1ccc(N2C[C@@H]([C@@H](O)C(F)(F)F)O[C@@H]2C(F)(F)F)cc1C(F)(F)F [Example 23, 4-((2R,5S)-5-((R)-2,2,2-trifluoro-1-hydroxyethyl)-2-(trifluoromethyl)oxazolidin-3-yl)-2-(trifluoromethyl)benzonitrile]",,,44.3 nM
"N#Cc1ccc(N2C[C@@H](COc3ccc(F)c(F)c3)O[C@@H]2C(F)(F)F)cc1C(F)(F)F [Example 10, 4-((2R,5S)-5-((3,4-difluorophenoxy)methyl)-2-(trifluoromethyl)oxazolidin-3-yl)-2-(trifluoromethyl)benzonitrile]",11.1 nM,,6.3 nM
"N#Cc1ccc(N2C[C@H]([C@@H](O)C(F)(F)F)O[C@H]2C(F)(F)F)cc1C(F)(F)F [Example 21, 4-((2S,5R)-5-((R)-2,2,2-trifluoro-1-hydroxyethyl)-2-(trifluoromethyl)oxazolidin-3-yl)-2-(trifluoromethyl)benzonitrile]",,,1060 nM
"N#Cc1ccc(N2C[C@@H](COc3ccc([N+](=O)[O-])cc3Cl)O[C@@H]2C(F)(F)F)cc1C(F)(F)F [Example 12, 4-((2R,5S)-5-((2-chloro-4-nitrophenoxy)methyl)-2-(trifluoromethyl)oxazolidin-3-yl)-2-(trifluoromethyl)benzonitrile]",,,145 nM
"N#Cc1ccc(N2C[C@@H](COc3ccc([N+](=O)[O-])cc3)O[C@H]2C(F)(F)F)cc1C(F)(F)F [Example 35, 4-((2S,5S)-5-((4-nitrophenoxy)methyl)-2-(trifluoromethyl)oxazolidin-3-yl)-2-(trifluoromethyl)benzonitrile]",,,185 nM
"COC(=O)c1ccc(OC[C@@H]2CN(c3ccc(C#N)c(C(F)(F)F)c3)[C@@H](C(F)(F)F)O2)cc1 [Example 7, methyl 4-(((2R,5S)-3-(4-cyano-3-(trifluoromethyl)phenyl)-2-(trifluoromethyl)oxazolidin-5-yl)methoxy)benzoate]",13.1 nM,,15.7 nM
"N#Cc1ccc(N2C[C@H]([C@H](O)C(F)(F)F)O[C@H]2C(F)(F)F)cc1C(F)(F)F [Example 22, 4-((2S,5R)-5-((S)-2,2,2-trifluoro-1-hydroxyethyl)-2-(trifluoromethyl)oxazolidin-3-yl)-2-(trifluoromethyl)benzonitrile]",,,1870 nM
"N#Cc1ccc(SC[C@@H]2CN(c3ccc(C#N)c(C(F)(F)F)c3)[C@@H](C(F)(F)F)O2)cc1 [Example 29, 4-((2R,5S)-5-(((4-cyanophenyl)thio)methyl)-2-(trifluoromethyl)oxazolidin-3-yl)-2-(trifluoromethyl)benzonitrile]",7.5 nM,,14.1 nM
"N#Cc1ccc(COC[C@H]2CN(c3ccc(C#N)c(C(F)(F)F)c3)[C@H](C(F)(F)F)O2)cc1 [Example 4, 4-((2S,5R)-5-(((4-cyanobenzyl)oxy)methyl)-2-(trifluoromethyl)oxazolidin-3-yl)-2-(trifluoromethyl)benzonitrile]",,,657 nM
"N#Cc1ccc(N2C[C@@H](COc3ccc([N+](=O)[O-])cc3)O[C@@H]2C(F)(F)F)cc1C(F)(F)F [Example 8, 4-((2R,5S)-5-((4-nitrophenoxy)methyl)-2-(trifluoromethyl)oxazolidin-3-yl)-2-(trifluoromethyl)benzonitrile]",20 nM,,13.7 nM
N#Cc1ccc(N2C[C@@H](COc3ccc([N+](=O)[O-])c(F)c3)O[C@@H]2C(F)(F)F)cc1C(F)(F)F [Example 31],17.7 nM,,14.1 nM
"N#Cc1ccc(OC[C@H]2CN(c3ccc(C#N)c(C(F)(F)F)c3)[C@H](C(F)(F)F)O2)cc1 [Example 20, 4-((2S,5R)-5-((4-cyanophenoxy)methyl)-2-(trifluoromethyl)oxazolidin-3-yl)-2-(trifluoromethyl)benzonitrile]",,,1080 nM
